Measurements from patent publication US20160074428A1, “COMPOSITIONS AND METHODS FOR THE TREATMENT OF HUMAN IMMUNODEFICIENCY VIRUS INFECTION” (THE CHILDREN'S HOSPITAL OF PHILADELPHIA, priority 2013, published 2016).
No end group written: not given here.

Experiments:
[1] = tested on: HIV-Bal; experiment: HIV-Bal infection of macrophages, HIV gag mRNA by real time RT-PCR; assay type: cell-based, HIV-1; conditions: 0, 2, 10 or 20 μg/ml HbHp complex, 7 days postinfection
Protocol: HIV infection. Macrophages were incubated with HIV-Bal virus overnight, and then extensively washed to remove unbound virus. The culture medium and the reagents were replaced twice weekly. At days 5, 7, 9 and 11 post HIV infection, cellular RNA was extracted from the MDM for assessment of HIV gag mRNA expression using real time RT-PCR assays.
RNA Extraction and Real-Time RT PCR Assays. Total RNA was extracted from macrophages using RNeasy kit (Qiagen), and the potential DNA contamination was eliminated by on-column DNase digestion as instructed by the manufacturer (Qiagen). RNA concentration was determined by Qubit fluorometer using Quant-iT RNA Assay kit (Invitrogen, Eugene, Oreg.).
Total RNA (1 μg) was reverse transcribed using AffinityScript QPCR cDNA Synthesis kit ([…], Cedar Creek, Tex.) with random primer as instructed by the manufacture. Reverse transcriptase negative controls were used in order to control for genomic DNA contamination. 1 μl of the resulting cDNA was used as a template for real-time PCR amplification.
RNA Interference (RNAi). RNAi CD163 pool and control RNAi was purchased from Santa Cruz Biotechnologies. The siRNAs pool was transfected into macrophages with Lipofectamine RNAimax (Invitrogen), following the manufacturer's protocol. Experiments were carried out 48 h after transfection.

[2] = tested on: HIV-GFP-tagged reporter virus pSF162R3 Nef+; experiment: Infection of macrophages with HIV-GFP-tagged reporter virus, GFP fluorescence; assay type: cell-based; conditions: 0, 2, 10 or 50 μg/ml HbHp complex, 7 days postinfection
Protocol: FIG. 5. Effect of HbHp-complexes on HIV infection in macrophages. Hb and Hp were added to macrophages in a 1:1 molar ratio and incubated for 2 h at 37° C. a) Macrophages, treated with 0, 2, 10 or 20 μg/ml of HbHp complex and infected with HIV-BaL, were assayed 7 days postinfection for HIV GAG by real time RT PCR. b) Macrophages, treated with 0, 2, 10 or 50 μg/ml of HbHp complex and infected with HIV-GFP-tagged reported virus, were assayed 7 days postinfection for GFP fluorescence. c) Representative images of macrophages, treated with 0, 2, 10, and 50 μg/ml of HbHp complex and infected with HIV-GFP-tagged reported virus 7 days postinfection. Average results of three independent experiments are presented as mean±SD.
Virus. The M-tropic HIV-1 R5 strain Bal was obtained from the NIH AIDS Reagent Program. The HIV-GFP-tagged reporter virus pSF162R3 Nef+, was made based on HIV-SF162 strain and was a gift from Dr. Amanda Brown (John Hopkins School of Medicine, Baltimore, Md.) (45).
Microscopy. Macrophages were infected with HIV-GFP-tagged reported virus pSF162R3 Nef+. […] GFP intensity was quantified using ImageJ (National Institute of Mental Health, Bethesda, Md., USA).

[3] = target: T1, NK1R (Homo sapiens, UniProt P25103); experiment: Intracellular calcium measurement by flow cytometry (Fluo-4/Fura-red ratio) in monocytes; assay type: cell-based
T1 construct: endogenous in cells; host or cells: freshly isolated human blood monocytes (gated within PBMC)
T1 sequence (P25103 1-311): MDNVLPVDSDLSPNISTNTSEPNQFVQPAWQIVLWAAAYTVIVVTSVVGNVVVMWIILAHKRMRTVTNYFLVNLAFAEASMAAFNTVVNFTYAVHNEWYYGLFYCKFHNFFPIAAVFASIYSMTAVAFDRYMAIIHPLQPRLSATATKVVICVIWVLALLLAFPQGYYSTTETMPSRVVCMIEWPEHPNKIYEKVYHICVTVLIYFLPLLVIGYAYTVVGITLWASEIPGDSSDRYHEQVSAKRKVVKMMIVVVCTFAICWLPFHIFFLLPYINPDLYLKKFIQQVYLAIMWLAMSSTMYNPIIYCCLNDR
Protocol: (§1) Intracellular calcium measurements. Freshly isolated monocytes were washed in Hank's balanced salt solution (HBSS) containing 1 mM calcium chloride then loaded with Fluo-4 AM (2 μM) and Fura-red AM (2 μM). Intracellular calcium recordings were performed using the Accuri C6 Analyzer (BD Biosciences, San Jose, Calif.). Fluorescence intensities were recorded in FL1-A (Fluo-4 AM) and FL3-A (Fura-red AM) channels. Intracellular calcium measurements were quantified by calculating the ratio between FL1-A/FL3-A values as a derived parameter in FlowJo 7.6.5 for Windows (Treestar Inc., Ashland, Oreg.) as previously described (1).
Gating on lymphocyte and monocyte populations was performed based of light scattering properties of the cells (FIG. 1A).

[4] = tested on: CD163; experiment: CD163 measurement by flow cytometry on monocytes/macrophages; assay type: cell-based, human; conditions: for CD163 expression, time course: 10 μM SP
Protocol: CD163 measurement by flow cytometry. For time-course experiments, freshly isolated monocytes were stimulated with either IL-10 (20 ng/ml) or SP (10 μM) and after 0, 2, 4 and 6 days of culture the cells were detached and the expression of membrane-bound CD163 was quantified by flow cytometry. For the dose-response experiments, freshly isolated monocytes were stimulated with either IL-10 (0.2, 0.6, 2, 6 or 20 ng/ml) or SP (0.3, 1, 3, 10 or 30 μM) and after 4 days of culture the cells were detached for CD163 measurement. Macrophages were detached using Lidocaine (4 mg/ml) in HBSS with EDTA (1 mM) for 30 minutes at 37° C. Cells were labeled with anti-human CD163 antibody (clone R-20) conjugated with PE (Trillium Diagnostics, Scarborough, Me.) for 30 minutes at room temperature. After labeling, cells were washed and resuspended in Hank's balanced salt solution (HBSS). Flow cytometry experiments were performed on an Accuri C6 analyzer (BD Biosciences, San Jose, Calif.) in the Flow Cytometry Core Laboratory of the Children's Hospital of Philadelphia Research Institute.

[5] = tested on: lymphocytes; experiment: Intracellular calcium measurement by flow cytometry in lymphocytes; assay type: cell-based, human; conditions: SP at concentrations as high as 30 μM; data not shown
Protocol: as §1
SP induces intracellular calcium increase in human monocytes. Our previous studies have shown that in U373MG cell NK1R stimulates the release of Ca^2+ from intracellular stores though activation of phospholipase C. To assess whether the effect of SP on monocytes is due to activation of NK1R we examined the levels of intracellular Ca^2+. We used a ratiometric calcium assay, where PBMC were loaded with Fluo-4 and Fura-red, then stimulated again with SP or appropriate agonist. Gating on lymphocyte and monocyte populations was performed based of light scattering properties of the cells (FIG. 1A). […] This pharmacology profile of NK1R, with high concentrations of SP required to elicit a response is consistent with the truncated form of NK1R.

[6] = tested on: HIV; conditions: cited from earlier work

## Hb-Hp complexes: hemoglobin-haptoglobin complexes, Hb and Hp added in a 1:1 molar ratio; ligand of CD163
[1]
  HIV infection of macrophages (HIV GAG, RT PCR): concentration-dependent decrease
[2]
  number of infected cells/well (GFP fluorescence): concentration-dependent decrease

## Neurokinin B [NKB]
[3]; 10 μM agonist, SP induced a response in the same samples
  Ca2+ response to agonist: failed to induce Ca^2+ responses

## Substance P (RPKPQQFFGLM; ends and bridges not checked; UniProt P20366 58-68, looked up) [SP, undecapeptide neurotransmitter of the tachykinin family; purchased from Sigma]
[4]
  extent of CD163 induction compared with IL-10: lower extent than that induced by IL-10
[4]; 4 days
  CD163 expression, time course: significant increase
[4]; 6 days
  CD163 expression, time course: did not persist
[4]; SP 0.3-10 μM, 4 days
  CD163 expression, dose response: significant increase
[4]; monocytes in AIM V medium without FBS, 4 days after treatment
  levels of membrane bound CD163 with increasing doses: progressively higher
[5]
  intracellular Ca2+ increase in lymphocytes: did not induce intracellular Ca^2+ increase
[6]
  effect on HIV infection of MDM: promotes HIV infection

## C[C@@H](O[C@H]1OCCN(Cc2n[nH]c(=O)[nH]2)[C@H]1c1ccc(F)cc1)c1cc(C(F)(F)F)cc(C(F)(F)F)c1 [Aprepitant, aprepitant]
[3]; pre-treatment with 50 μM for 15 minutes before adding 10 μM SP
  effect on SP induced calcium response: abolished SP induced calcium response

B1: interleukin-10 (protein, UniProt P22301 19-178, looked up)
Interleukin-10: SPGQGTQSENSCTHFPGNLPNMLRDLRDAFSRVKTFFQMKDQLDNLLLKESLLEDFKGYLGCQALSEMIQFYLEEVMPQAENQDPDIKAHVNSLGENLKTLRLRLRRCHRFLPCENKSKAVEQVKNAFNKLQEKGIYKAMSEFDIFINYIEAYMTMKIRN
notes: anti-inflammatory mediator that upregulates CD163 expression
[4]; 0.2 ng/ml IL-10, 4 days of culture
  CD163 expression, dose response: significant increase
[4]; 20 ng/ml IL-10, 2 days
  expression of CD163, time course: significant increase
[4]; 20 ng/ml IL-10, 4 days of culture
  CD163 expression, dose response: had not induced maximal increase
[4]; 20 ng/ml IL-10, days 4 and 6, compared with day 2
  expression of CD163, time course: higher
